Reference: article PMC10380841, “Synthesis, Characterization and Cytotoxic Evaluation of New Pyrrolo[1,2-b]pyridazines Obtained via Mesoionic Oxazolo-Pyridazinones” (International Journal of Molecular Sciences, 2023)
Entries after “also recorded” stand apart in the source; their conditions may differ. Where two headings read alike, the source gives them in different places.

What was measured:
[1] = test system: LoVo colon adenocarcinoma cells; test: MTS cytotoxicity assay, LoVo; format: cell-based, human
Method: (§1) Therefore, the precursor acids 2a–c and corresponding pyrrolo[1,2-b]pyridazines 5a–c,f were tested for their potential cytotoxic activity. During the assays, increasing concentrations of the compounds, ranging from […], were added for 24 h or 48 h to cancer LoVo, SK-OV-3, MCF-7, and the reference HUVEC cells, previously cultured for 24 h in 96-well flat bottom plates. […] Then, MTS reagent was added, and cells were incubated for 4 h at 37 °C in a 5% CO2 humidified atmosphere. The absorbance values were spectrophotometrically read to a Dynex ELISA reader at λ = […].
(§2) For the evaluation of the in vitro potential anti-proliferative effects of treatments with the new compounds under study against solid tumor-derived cells, several compound-mediated cytotoxicity assays were performed on three adherent tumor standardized cell lines, and normal human endothelial cells, used as control: the MCF-7 human breast adenocarcinoma and SK-OV-3 human ovary adenocarcinoma cell lines were provided from European Collection of Authenticated Cell Cultures (ECACC), while LoVo, human colorectal adenocarcinoma cell line, and HUVEC human umbilical vein endothelial cells were purchased from American Type Culture Collection (ATCC).
(§3) Adherent cells were cultivated in DMEM/F12 medium added with 2 mM L-glutamine and 10% fetal bovine serum, 100 units/mL penicillin, 100 µg/mL streptomycin (Sigma Aldrich, St. Louis, MO, USA) and incubated at 37 °C in 5% CO2 humidified atmosphere. The stock solutions for cell treatments were prepared by dissolving the synthesized compounds in a minimum amount of DMSO. Working dilutions were prepared from the stock solutions in culture medium before each treatment assay. After 24 h, when cell cultures achieved around 70% confluence, treatments were applied for various periods of time with different concentrations of synthesized compounds or oncolytic drugs, used as positive controls.
(§4) Therefore, cell cultures treated with the new compounds or oncolytic drugs for 24 h or 48 h were further subjected to a colorimetric cell viability method, the MTS assay. The absorbance of probes was read, data were calculated, and percentages of cell viability were assessed.
(§5) The evaluation of the compound-induced cytotoxicity was made using the CellTiter 96 Aqueous One Solution Cell Proliferation Assay (Promega, Madison, WI, USA), a reagent that contains both MTS (3-(4,5-dimethylthiazol-2-yl)-5-(3-carboxymethoxyphenyl)-2-(4-sulfophenyl)-2H-tetrazolium, inner salt) and PES ([…], a cationic dye with high chemical stability that binds to MTS and forms a stable solution).
(§6) Briefly, 1.5 × 10^4 cancer or normal cells were cultured in 100 µL/well for 24 h. After the culture supernatants were discarded, cells were treated for additional 24 h or 48 h with increasing concentrations of new compounds or oncolytic drugs. Following the specific treatments, in each well a volume of 20 µL of coloring mixture reagent of MTS and PES was added, and then the plates were incubated with mild agitation every 20 min for 4 h at 37 °C. The color developed during incubation was spectrophotometrically quantified at λ = 492 nm using a Dynex ELISA reader (DYNEX Technologies—MRS, Chantilly, VA, USA).
(§7) Data were expressed as percentages of cell viability of the treated cells, and were calculated and compared to the untreated cells (considered 100% viable), using the formula:Cell viability (%) = (T − B)/(U − B) × 100 where T = absorbance of treated cells, U = absorbance of untreated cells, and B = absorbance of culture medium (blank), for λ = 492 nm.
(§8) The cell viability data were expressed as the mean values ± standard deviations (SD) of three different experiments (n = 3). […] Moreover, a parallel experiment was performed in the absence of cells, with all the concentrations of the compounds being tested for their potential interference with MTS reagents; then, their absorbance values were extracted during calculations.

[2] = test system: SK-OV-3 ovary adenocarcinoma cells; test: MTS cytotoxicity assay, SK-OV-3; format: cell-based, human
Method: as §1, §2, §3, §4, §5, §6, §7, §8

[3] = test system: Triticum vulgare root tips; test: Microscopic examination of Triticum root tips (mitotic film changes); format: in vivo; settings: 24 h contact
Method: Microscopic examination of Triticum vulgare root tips followed the mitotic film changes induced by the tested compounds. Observations were made after 24 h of contact of the caryopses with the test solutions. The study was made in comparison with DMSO control maintained under the same conditions as the samples. To obtain microscopic preparations, sectioning of wheat embryonic roots was carried out at about 5 mm from the tip and stained with dilute […] according to the La Cour procedure. The examination was conducted on a Euromex oxion series 110–240 V/50–60 Hz microscope with digital camera CEMEX 5 DC 5000 C and 40× and 100× lenses with cedar oil immersion (Sigma-Aldrich St. Louis, MO, USA).

Daphnia magna Straus = test: Daphnia magna toxicity assay; format: in vivo; settings: for toxicity on Daphnia magna / L% values (lethality): 48 h; for L% values (lethality): all tested concentrations
Method: (§9) Young organisms of Daphnia magna were selected according to their size from a parthenogenetic culture maintained in an artificial medium for 24 h before the bioassay. The determination was conducted in tissue culture plates with 12 wells (Greiner Bio-One, Monroe, NC, USA), with 10 organisms in each well, and a final volume of 3 mL per sample [65, 66]. As a negative control, DMSO was used at a concentration of 1%. All compounds were tested at six different concentration levels, ranging from 12.5 to 500 μg/mL. All assessments were performed in duplicate.

[4] = test system: LoVo colon adenocarcinoma cells; test: MTS cytotoxicity assay, LoVo; format: cell-based; settings: Homo sapiens, read-out: cell viability
[5] = test system: MCF-7 breast adenocarcinoma cells; test: MTS cytotoxicity assay, MCF-7; format: cell-based, human; settings: Homo sapiens, MCF7; for IC50: MCF-7, 48 h, read-out: IC50 MCF-7 48 h; for viability at 400 µM: MCF-7, 400 μM, 48 h, read-out: cell viability
Method: as §1, §2, §3, §4
as §5, with “solution). The assay is based on the ability of the metabolically active cells to reduce the yellow tetrazolium salt MTS to a compound that is soluble in culture medium, the colored formazan, followed by the spectrophotometric evaluation of its concentration.” for “solution).”
as §6, §7
The cell viability data were expressed as the mean values ± standard deviations (SD) of three different experiments (n = 3). […]

Triticum aestivum L. = test: Triticum test, phytotoxicity (main root length); format: in vivo; settings: Triticum aestivum, 72 h; Triticum root length, 10–1000 µM, measured over three days
Method: Phytobiological testing (Triticum test) was performed by the Constantinescu method which consists in determining the maximum active dilution of a compound. Depending on the duration of action, it can influence root elongation and the […] film. […] Embryonic wheat roots were obtained by germinating homogeneous wheat caryopses in Linhart pots. Then the caryopses with a main root length of 1 cm were placed in the test solutions. For the determination of the action of each compound, five dilutions in the concentration range of 10–1000 µM were obtained and 11 caryopses were placed in them. Petri dishes containing 15 mL of diluted solution were kept under constant conditions of temperature (25 °C), and humidity (60%), in the absence of light. […] The results were expressed in comparison with a 1% DMSO control.
Statistical analyses were performed using the computing and programming environment R, R, v. 4.2.1 [68], under Rstudio, v. 2022.07.2+576 “Spotted Wakerobin” for Windows (RStudio, PBC, Boston, 2022), both for the Triticum and Artemia tests. It used a parametric mixed-effects model (R package “lme4”) and a robust mixed-effects model (R package “robustlmm”), in which root length measurements (Triticum) from all three days were used as the dependent variable, whereas compound, concentration and time were treated as fixed effects, with time (day of measurement) also treated as a random effect. Assessing statistical significance for mixed-effects statistical models is controversial and complex, but as a pragmatic way of working, we have estimated p-values using the Kenward–Rogers approximation (R package “sjPlot”). A variety of R base functions and R packages were used to diagnose the regression models (“car” [72], “MASS” [73], and “gvlma” [74]). Mixed boxplot–dotplot plots were generated using the “ggplot2” package.
The “drc” R package was used to estimate IC50 values for the Triticum bioassay by nonlinear modeling. For Triticum, the relationship between root length and concentration was modeled using Weibull functions with 2, 3, or 4 parameters, depending on the data distribution, the models being selected from a range of several models with different functions and parameters, based on the Akaike’s information criterion (AIC).

[6] = test system: SK-OV-3 ovary adenocarcinoma cells; test: MTS cytotoxicity assay, SK-OV-3; format: cell-based; settings: Homo sapiens; SK-OV-3, 400 μM, 24 h; read-out: cell viability
[7] = Daphnia magna toxicity assay; format: in vivo; settings: Daphnia magna, in vivo; 48 h
Method: as §9

[8] = Homo sapiens, 24 h, read-out: IC50 LoVo 24 h
[9] = Homo sapiens, 48 h, read-out: IC50 LoVo 48 h
[10] = Homo sapiens, SK-OV-3, 24 h, read-out: IC50 Sk-OV-3 24 h
[11] = Homo sapiens, SK-OV-3, 48 h, read-out: IC50 Sk-OV-3 48 h

Structure (SMILES) | mitotic film / cell changes in root tips ([3]; 1000 μM) | IC50 [1, 8] | IC50 [1, 9] | toxicity on Daphnia magna (Daphnia magna Straus) | L% values (lethality) (Daphnia magna Straus) | viability at 400 µM ([4]; 24 h) | viability at 400 µM ([4]; 48 h) | IC50 [5] | IC50 (Triticum aestivum L.) | IC50 [2, 10] | IC50 [2, 11] | viability at 400 µM [6] | LC50 at 48 h [7] | viability at 100 µM ([4]; 48 h) | viability at 400 µM [5] | further results
N.N.[Cl][Pt][Cl] [CisPt, cisplatin, reference compound] |  |  |  |  |  |  |  |  |  |  |  |  |  |  |  | IC50 ([1]; 24 h, read-out: IC50 LoVo 24 h): 79.1 ± 4.75 µM; IC50 ([1]; 48 h, read-out: IC50 LoVo 48 h): 57 ± 0.95 µM; IC50 ([2]; SK-OV-3, 24 h, read-out: IC50 Sk-OV-3 24 h): 92.2 ± 3.45 µM; IC50 ([2]; SK-OV-3, 48 h, read-out: IC50 Sk-OV-3 48 h): 78.2 ± 4.01 µM
CCC(C(=O)O)n1nc(-c2ccc(F)cc2)ccc1=O (centres unmarked) [Compound 2b, 2-[6-Oxo-3-(4-fluorophenyl)pyridazin-1-yl]butanoic acid] | Mitoinhibition and cells with 1-3 nucleoli | ≥ 400 µM | ≥ 400 µM | no toxicity | ND * (all L% values were lower than 30%) | 91% | 81.1% | ≥ 400 µM | 204 µM | ≥ 400 µM | ≥ 400 µM |  |  |  |  | 
CCC(C(=O)O)n1nc(-c2ccc(Cl)cc2)ccc1=O (centres unmarked) [Compound 2c, 2-[6-Oxo-3-(4-chlorophenyl)pyridazin-1-yl]butanoic acid] | disorganized metaphase | ≥ 400 µM | 367 ± 3.7 µM | no toxicity | ND * (all L% values were lower than 30%) | 78.2% | 48.1% |  | 553 µM | ≥ 400 µM | ≥ 400 µM | 88.3% |  |  |  | 
CCc1cc(C(=O)OC)c2ccc(-c3ccccc3)nn12 [Compound 5a, Methyl 7-ethyl-2-phenylpyrrolo[1,2-b]pyridazine-5-carboxylate] | telophase with delayed chromosome, wavy cell walls; also recorded: no mitoinhibitory effect | ≥ 400 µM | 304 ± 4.85 µM |  |  | 63.5% | 48.5% |  |  |  |  |  | 46.1 µM | 58.2% |  | mitotic film / cell changes in root tips ([3]; 100 µM): bridged telophase, disorganized metaphase; maximum lethality (L%) (Daphnia magna Straus; 24 h): 40%; viability at 50 µM ([4]; 24 h): 79%; viability at 50 µM ([4]; 48 h): 65.3%; viability at 100 µM ([4]; 24 h): 78.1%; viability at 200 µM ([4]; 200 μM, 48 h): 52.5%
CCc1cc(C(=O)OC)c2ccc(-c3ccc(F)cc3)nn12 [Compound 5b, Methyl 7-ethyl-2-(4-fluorophenyl)pyrrolo[1,2-b]pyridazine-5-carboxylate] | telophase in tropokinesis, normal, or disorganized metaphase | ≥ 400 µM | ≥ 400 µM | moderate toxicity |  | 87.8% | 60.3% | ≥ 400 µM |  | ≥ 400 µM | ≥ 400 µM | 78% | 463 µM | 79.4% | 89.7% | 
CCc1cc(C(=O)OC)c2ccc(-c3ccc(Cl)cc3)nn12 [Compound 5c, Methyl 2-(4-chlorophenyl)-7-ethylpyrrolo[1,2-b]pyridazine-5-carboxylate] |  | ≥ 400 µM | ≥ 400 µM |  | ND ** (all L% values were in range of 30 to 70%, independent of concentration) | 68.6% | 61.1% | ≥ 400 µM |  | ≥ 400 µM | ≥ 400 µM |  | ~107 µM |  | 88.5% | 
